≈ marks a conversion by molar mass, not a printed value. Read-outs that look alike come from different tables or passages of the source.
Columns and labels:
HIV-1 HXB2 = assay: MT-4 antiviral cytopathic effect assay, HXB2 wild-type virus; type: cell-based; conditions: Human immunodeficiency virus 1, MT4; HIV-1 HXB2 wild-type, MT-4 cells; read-out: EC50 HXB2
Description: (§1) The prepared compounds were tested for their anti-HIV-1 activity (Table 1). A viral cytopathic effect assay in MT-4 cells with HIV-1 IIIB virus was used to determine compound potency (EC50, 50% cell viability) in protecting virus induced cell killing. Compound cytotoxicity was assessed in MT-4 cells in the absence of virus (CC50, 50% cytotoxicity).
(§2) Compounds were tested in a high-throughput 384-well assay format for their ability to inhibit the virus replication-induced cytopathic effect in MT-4 cell cultures acutely infected with HIV-1 (IIIB strain), HXB2, HXB2-K103N, and HXB2-Y181C. Compounds were serially diluted (1:3) in DMSO on 384-well polypropylene plates and further diluted 200-fold into complete RPMI media (10% FBS, 1% P/S) using Biotek Micro Flow and an Agilent ECHO acoustic dispenser. Each plate contained up to eight test compounds, with negative (no drug control) and 5 μM AZT positive controls. MT-4 cells were further diluted in complete RPMI media and added to each plate using a Micro-Flo dispenser. After five days of incubation in a humidified and temperature-controlled incubator (37 °C), Cell Titer Glo (Promega) was added to the assay plates to quantify the amount of […]. EC50 and CC50 values were defined as the compound concentration that causes a 50% decrease in luminescence signal and were calculated using a sigmoidal dose-response model to generate curve fits.

[1] = Predicted clearance in human liver microsomes; type: in vitro ADME; conditions: pH 7.4, 1 μM compound, read-out: HLM CLint, pred (converted)
Description: Next, microsome stability was profiled in purified human liver microsomes (HLM).
Metabolic stability of compounds was assessed using HLM (Corning cat. 457117).[52] In this assay, 10 nL compounds at a concentration of 1 mM in 100% DMSO are dispensed into 384-well polypropylene plates using the Echo 550 acoustic liquid dispenser (Labcyte). Each plate contains 384 wells with a single test compound in each well.
A solution of HLM at 2 mg/mL in 100 mM K2HPO4/KH2PO4 pH 7.4 with 0.0225 mg/mL Alamethicin from Trichoderma viride (Sigma-Aldrich cat. A4665-10MG) was incubated on ice for 15 min. 5 μL of this solution was added to individual wells following 15 min incubation at room temperature; and supplemented with 5 μL NADPH Regenerating Solution of cofactors (Corning Gentest UGT Reaction Mix solutions A and B, cat. 451200 and 451220) containing 100 mM K2HPO4/KH2PO4 pH 7.4, 2.6 mM NADP^+, 6.6 mM glucose-6-phosphate, 6.6 mM MgCl2, 0.8 U/mL glucose-6-phosphate dehydrogenase, 0.1 mM sodium citrate, and 6.8 mM uridine diphosphate-glucuronic acid. The final concentration of analyte compounds at the beginning of the reactions was 1 μM. The reactions were incubated at 37 °C, and time points of 0, 5, 15, 30, 40, 50, 60, and 70 min were collected for further analysis. Background data were collected using reactions without analyte compounds.
Upon collection of the reaction time points, samples were quenched at the set time points with 30 μL of a solution of 72% acetonitrile, 8% methanol, 0.1% formic acid, 19.9% water, and labetalol as an internal standard (IS) at a concentration of 650 nM. Reaction plates were span in a centrifuge at a speed of 4000 rcf for 30 min and 4 °C, following a dilution of the 10 μL quenched reaction into 40 μL de-ionized water, yielding assay plates.
Samples were analyzed by a solid-phase extraction coupled with a quadrupole time-of-flight mass spectrometer, using an Agilent QToF 6530 RapidFire 360 system with C4 type A solid state cartridges. Analysis was performed in either positive or negative ionization modes. Mobile phases contained 0.1% formic acid in water for loading analytes onto solid state extraction cartridges, and 0.1% formic acid in acetonitrile for elution into the mass spectrometer in positive ionization mode, or 0.1% acetic acid in water for loading and 0.1% acetic acid in acetonitrile for extraction in negative ionization mode. Peak-area ratios of integrated counts for individual compounds to IS were plotted as a semi-logarithmic chart of log versus time. Initial, linear portion of decay was fitted to a linear regression equation to derive the half-time of a compound decay.
Pharmacological parameters for an analyte compound metabolism were calculated using the equations described in Table S2.
Table S2. Pharmacological parameters for an analyte compound metabolism were
calculated using the following equations:
Intrinsic Clearance (in Cl = ln 2
int, in vitro T1/2 ∗ Conc
Intrinsic Clearance Cl = Clint, in vitro ∗ Liver Mass ∗ Yield
Predicted Hepatic Cl = Clint ∗ QH
QH (Hepatic Blood Flow) = 1.3 L/hr/kg

[2] = Solubility assessment, shake-flask method; type: physicochemical; conditions: for solubility: shake-flask; for HCl sol / PBS sol: supplement CSV
Description: Compound solubility was measured at Analiza (Cleveland, OH) by the standard shake-flask method at pH 1.2 and 7.4 and quantitated by HPLC-UV.

[3] = MDCK permeability assay (A to B); type: in vitro ADME, Canine; conditions: dog, MDCK
Description: Compounds were further tested in a Madin–Darby Canine Kidney (MDCK) assay to evaluate their potential for oral absorption. […] Additionally, there was no trend for better permeability when comparing arm I versus arm II when matched with the same core. The size of the B ring had the greatest influence on Papp with the trend being five-membered > six-membered > seven-membered rings (Table 1).
cMdr1-KO cells were maintained in Dulbecco’s modified Eagle’s medium (DMEM) with sodium pyruvate and GlutaMax, supplemented with 1% Pen/Strep and 10% fetal bovine serum in an incubator set at 37 °C, 90% humidity, and 5% CO2. MDCKII- cMdr1-KO cells were grown to confluence over 3 days on 96-well PET plates with 1 μm pore size, polyester membrane (Corning 3392). Experiments were run using HBSS donor buffer from Invitrogen containing an additional 10 mM HEPES, 15 mM glucose, and 0.1% BSA adjusted to pH 7.4. The receiver well had HBSS buffer supplemented with 1% BSA, 10 mM HEPES, 15 mM glucose, and the pH was adjusted to 7.4. TEER values were read to test membrane integrity at the beginning of the assay. The experiment was started by the addition of dosing solutions containing test compounds. Samples were taken from the donor compartment at 0/120 min and from the receiver compartment at 120 min. Each compound was tested in two separate replicate wells. All samples were immediately collected in a 72:8:20 MeCN/MeOH:H2O mix to precipitate protein and stabilize the test compounds. Cells were dosed on the apical side to determine forward (A to B) permeability. To test for non-specific binding and compound instability, the total amount of drug was quantified at the end of the experiment and compared to the material present in the original dosing solution as a percentage of recovery. Samples were analyzed by RF-QToF.

HIV-1 (IIIB strain) = assay: MT-4 antiviral cytopathic effect assay, HIV-1 IIIB; type: cell-based; conditions: for EC50: Human immunodeficiency virus 1, IIIB, MT4, protects 50% of MT-4 cells against HIV-1-induced cell killing, HIV-1 IIIB, WT, read-out: EC50 MT4
Description: as §1, §2

in vitro = type: cell-based; conditions: human
Description: as §1, with “cytotoxicity). […] ETV contains bromo and amino substitutions on the DAPY core. […] Likely, with the smaller cyano arm I in 1, 3, and 5, the cores could be further elaborated to optimize the compound position in the pocket and to improve potency.” for “cytotoxicity).”
as §2

HIV-1 HXB2 Y181C variant = assay: MT-4 antiviral cytopathic effect assay, HXB2-Y181C; type: cell-based; conditions: for EC50: Human immunodeficiency virus 1, HXB2, read-out: EC50 Y181C
Description: as §1, with “cytotoxicity). […] ETV contains bromo and amino substitutions on the DAPY core. […] Likely, with the smaller cyano arm I in 1, 3, and 5, the cores could be further elaborated to optimize the compound position in the pocket and to improve potency.” for “cytotoxicity).”
as §2

HIV-1 HXB2 K103N variant = assay: MT-4 antiviral cytopathic effect assay, HXB2-K103N; type: cell-based; conditions: for EC50: Human immunodeficiency virus 1, HXB2, read-out: EC50 K103N
Description: as §1, with “cytotoxicity). […] ETV contains bromo and amino substitutions on the DAPY core. […] Likely, with the smaller cyano arm I in 1, 3, and 5, the cores could be further elaborated to optimize the compound position in the pocket and to improve potency.” for “cytotoxicity).”
as §2

[4] = HCl, pH 1.2, read-out: solubility HCl
[5] = phosphate-buffered saline, pH 7.4, read-out: solubility PBS
[6] = apparent permeability coefficient, A to B, pH 7.4
[7] = fold change: ratio of potency against HXB2 Y181C and parental HXB2
[8] = supplement CSV, fold change vs HXB2
[9] = fold change: ratio of potency against HXB2 K103N and parental HXB2
[10] = preliminary biological data, in words

Structure (SMILES) | EC50 (HIV-1 HXB2) | CLint scaled at 1.167 h, 1 µM [1] | solubility [2, 4] | solubility [2, 5] | HCl sol [2] | PBS sol [2] | Papp A→B at 120 min ([3]; supplement CSV) | Papp A→B at 120 min [3, 6] | EC50 (HIV-1 (IIIB strain)) | CC50 at 120 h (in vitro) | EC50 (HIV-1 HXB2 Y181C variant) | Y181C (FC) (HIV-1 HXB2 Y181C variant; [7]) | Y181C (FC) (HIV-1 HXB2 Y181C variant; [8]) | EC50 (HIV-1 HXB2 K103N variant) | K103N (FC) (HIV-1 HXB2 K103N variant; [9]) | K103N (FC) (HIV-1 HXB2 K103N variant; [8]) | further results
Cc1cc(C#N)cc(C)c1-n1c(=O)[nH]c2cnc(Nc3ccc(C#N)cc3)nc21 [Compound 1, 4-{2-[(4-Cyanophenyl)amino]-8-oxo-8,9-dihydro-7H-purin-9-yl}-3,5-dimethylbenzonitrile] | 0.0737 µM | 8.83 mL/min/kg | 73.2 µM (≈ 27.9 µg/mL) | 6.6 µM (≈ 2.52 µg/mL) | 73.2 µM | 6.6 µM | 4.9 ×10⁻⁶ cm/s | 4.9 ×10⁻⁶ cm/s | 0.0623 µM | 43.7 µM | 0.241 µM | 3.3 | 3.3 | 0.23 µM | 3.1 | 3.1 | –
Cc1cc(/C=C/C#N)cc(C)c1-n1c(=O)[nH]c2cnc(Nc3ccc(C#N)cc3)nc21 [Compound 2, 4-[(9-{4-[(1E)-2-Cyanoeth-1-en-1-yl]-2,6-dimethylphenyl}-8-oxo-8,9-dihydro-7H-purin-2-yl)amino]benzonitrile] | 0.0022 µM | 16.7 mL/min/kg | 61.2 µM (≈ 24.9 µg/mL) | 10.4 µM (≈ 4.24 µg/mL) | 61.2 µM | 10.4 µM | 5.6 ×10⁻⁶ cm/s | 5.6 ×10⁻⁶ cm/s | 0.0025 µM | 23.3 µM | 0.0106 µM | 4.8 | 4.8 | 0.0045 µM | 2.0 | 2.0 | –
Cc1cc(C#N)cc(C)c1N1CCC(=O)Nc2cnc(Nc3ccc(C#N)cc3)nc21 [Compound 5, 4-{2-[(4-Cyanophenyl)amino]-6-oxo-5H,6H,7H,8H,9H-pyrimido[4,5-b][1,4]diazepin-9-yl}-3,5-dimethylbenzonitrile] | 0.0294 µM | 15.5 mL/min/kg | 87.3 µM (≈ 35.7 µg/mL) | 1.4 µM (≈ 0.573 µg/mL) | 87.3 µM | 1.4 µM | 3.5 ×10⁻⁶ cm/s | 3.5 ×10⁻⁶ cm/s | 0.0434 µM | – | 0.198 µM | 6.7 | 6.7 | 0.0707 µM | 2.4 | 2.4 | CC50 at 5 days (in vitro): > 50 µM
Cc1cc(Br)cc(C)c1N1CC(=O)Nc2cnc(Nc3ccc(C#N)cc3)nc21 [Compound 14, 4-{[8-(4-Bromo-2,6-dimethylphenyl)-6-oxo-5,6,7,8-tetrahydropteridin-2-yl]amino}benzonitrile] | – | – | – | – | – | – | – | – | – | – | – | – | – | – | – | – | aqueous solubility ([2]; preliminary data, in words): significantly improved; activity against the WT virus (HIV-1 (IIIB strain); [10]): low nanomolar activity; potency against Y181C mutated strain (HIV-1 HXB2 Y181C variant; [10]): high potency; potency against K103N mutated strain (HIV-1 HXB2 K103N variant; [10]): high potency
Cc1cc(CO)cc(C)c1N1CC(=O)Nc2cnc(Nc3ccc(C#N)cc3)nc21 [Compound 28, 4-({8-[4-(hydroxymethyl)-2,6-dimethylphenyl]-6-oxo-5,6,7,8-tetrahydropteridin-2-yl}amino)benzonitrile] | – | – | – | – | – | – | – | – | 0.0789 µM | 41.6 µM | – | – | – | – | – | – | –

Reference: paper PMC10017027, “Design and Synthesis of Novel HIV-1 NNRTIs with Bicyclic Cores and with Improved Physicochemical Properties” (Journal of Medicinal Chemistry, 2023)
